From patent US20240254118A1, “PRMT5 INHIBITORS AND USES THEREOF” (Gilead Sciences, Inc., priority 2022, published 2024)

What follows are compounds tested on HCT116 MTAP-deleted cells (assay: Cell viability assay (CellTiter-Glo, 7 days), HCT116 MTAP-deleted). Conditions: Homo sapiens, HCT-116, 168 h.

Row | SMILES | CC50
1 | CC(=O)N(C)N(Cc1ccc(-c2cnn(C(F)(F)F)c2)nc1F)C(=O)c1ccc2nc(N)c3cnn(C)c3c2c1 [Example 347, N′-acetyl-4-amino-N-((2-fluoro-6-(1-(trifluoromethyl)-1H-pyrazol-4-yl)pyridin-3-yl)methyl)-N′,1-dimethyl-1H-pyrazolo[4,3-c]quinoline-8-carbohydrazide] | < 100 nM
2 | CC(=O)N(C)N(Cc1ccc(-c2cnn(C(F)F)c2)nc1F)C(=O)c1ccc2nc(N)c3cnn(C)c3c2c1 [Example 348, N′-acetyl-4-amino-N-((6-(1-(difluoromethyl)-1H-pyrazol-4-yl)-2-fluoropyridin-3-yl)methyl)-N′,1-dimethyl-1H-pyrazolo[4,3-c]quinoline-8-carbohydrazide] | < 100 nM
3 | CN(C(=O)C1CC1)N(Cc1ccc(-c2cnn(C(F)F)c2)cn1)C(=O)c1ccc2nc(N)c3cnn(C)c3c2c1 [Example 353, 4-amino-N′-(cyclopropanecarbonyl)-N-((5-(1-(difluoromethyl)-1H-pyrazol-4-yl)pyridin-2-yl)methyl)-N′,1-dimethyl-1H-pyrazolo[4,3-c]quinoline-8-carbohydrazide] | < 100 nM
4 | CN(C(=O)C1CC1)N(Cc1ccc(Br)cn1)C(=O)c1ccc2nc(N)c3cnn(C)c3c2c1 [Example 354, 4-amino-N-((5-bromopyridin-2-yl)methyl)-N′-(cyclopropanecarbonyl)-N′,1-dimethyl-1H-pyrazolo[4,3-c]quinoline-8-carbohydrazide] | < 100 nM
5 | CN(C(=O)C1CC1)N(Cc1ccc(-c2cncs2)cn1)C(=O)c1ccc2nc(N)c3cnn(C)c3c2c1 [Example 355, 4-amino-N′-(cyclopropanecarbonyl)-N′,1-dimethyl-N-((5-(thiazol-5-yl)pyridin-2-yl)methyl)-1H-pyrazolo[4,3-c]quinoline-8-carbohydrazide] | < 100 nM
6 | CN(C(=O)C1CC1)N(Cc1ccc(-c2cnn(C)c2)cn1)C(=O)c1ccc2nc(N)c3cnn(C)c3c2c1 [Example 356, 4-amino-N′-(cyclopropanecarbonyl)-N′,1-dimethyl-N-((5-(1-methyl-1H-pyrazol-4-yl)pyridin-2-yl)methyl)-1H-pyrazolo[4,3-c]quinoline-8-carbohydrazide] | 100 to 1000 nM
7 | CN(C(=O)C1CC1)N(Cc1ccc(C2CC2)cn1)C(=O)c1ccc2nc(N)c3cnn(C)c3c2c1 [Example 357, 4-amino-N′-(cyclopropanecarbonyl)-N-((5-cyclopropylpyridin-2-yl)methyl)-N′,1-dimethyl-1H-pyrazolo[4,3-c]quinoline-8-carbohydrazide] | < 100 nM
8 | CN(C(=O)C1CC1(F)F)N(Cc1ccc(C(F)(F)F)cn1)C(=O)c1ccc2nc(N)c3cnn(C)c3c2c1 (stereo not drawn) [Example 358, 4-amino-N′-(2,2-difluorocyclopropane-1-carbonyl)-N′,1-dimethyl-N-((5-(trifluoromethyl)pyridin-2-yl)methyl)-1H-pyrazolo[4,3-c]quinoline-8-carbohydrazide] | < 100 nM
9 | CC(=O)N(C)N(Cc1c(F)cc(Cl)cc1F)C(=O)c1ccc2nc(N)c3cnn(C)c3c2c1 [Example 367, N′-acetyl-4-amino-N-(4-chloro-2,6-difluorobenzyl)-N′,1-dimethyl-1H-pyrazolo[4,3-c]quinoline-8-carbohydrazide] | < 100 nM
10 | CC(=O)N(C)N(Cc1cc(F)c(C(F)(F)F)cc1F)C(=O)c1ccc2nc(N)c3cnn(C)c3c2c1 [Example 368, N′-acetyl-4-amino-N-(2,5-difluoro-4-(trifluoromethyl)benzyl)-N′, 1-dimethyl-1H-pyrazolo[4,3-c]quinoline-8-carbohydrazide] | < 100 nM
11 | CN(C(=O)C1CC1)N(Cc1ccc(-c2ccc(C(F)(F)F)s2)cn1)C(=O)c1ccc2nc(N)c3cnn(C)c3c2c1 [Example 369, 4-amino-N′-(cyclopropanecarbonyl)-N′,1-dimethyl-N-((5-(5-(trifluoromethyl)thiophen-2-yl)pyridin-2-yl)methyl)-1H-pyrazolo[4,3-c]quinoline-8-carbohydrazide] | < 100 nM
12 | CN(C(=O)C1CC1)N(Cc1ccc(C(F)F)cn1)C(=O)c1ccc2nc(N)c3cnn(C)c3c2c1 [Example 370, 4-amino-N′-(cyclopropanecarbonyl)-N-((5-(difluoromethyl)pyridin-2-yl)methyl)-N′,1-dimethyl-1H-pyrazolo[4,3-c]quinoline-8-carbohydrazide] | < 100 nM
13 | CC(=O)N(C)N(Cc1ccc(C(F)(F)F)c(F)c1F)C(=O)c1ccc2nc(N)c3cnn(C)c3c2c1 [Example 371, N′-acetyl-4-amino-N-(2,3-difluoro-4-(trifluoromethyl)benzyl)-N′,1-dimethyl-1H-pyrazolo[4,3-c]quinoline-8-carbohydrazide] | < 100 nM
14 | CC(=O)N(C)N(Cc1ccc(-c2cnn(C)c2)cc1F)C(=O)c1ccc2nc(N)c3cnn(C)c3c2c1 [Example 373, N′-acetyl-4-amino-N-[[2-fluoro-4-(1-methylpyrazol-4-yl)phenyl]methyl]-N′,1-dimethyl-pyrazolo[4,3-c]quinoline-8-carbohydrazide] | < 100 nM
15 | CC(=O)N(C)N(Cc1ccc(-c2cnn(C(F)(F)F)c2)cc1Cl)C(=O)c1ccc2nc(N)c3cnn(C)c3c2c1 [Example 377, N′-acetyl-4-amino-N-[[2-chloro-4-[1-(trifluoromethyl)pyrazol-4-yl]phenyl]methyl]-N′,1-dimethyl-pyrazolo[4,3-c]quinoline-8-carbohydrazide] | < 100 nM
16 | CC(=O)N(C)N(Cc1c(F)cc(-c2cnn(C(F)(F)F)c2)cc1F)C(=O)c1ccc2nc(N)c3cnn(C)c3c2c1 [Example 378, N′-acetyl-4-amino-N-[[2,6-difluoro-4-[1-(trifluoromethyl)pyrazol-4-yl]phenyl]methyl]-N′,1-dimethyl-pyrazolo[4,3-c]quinoline-8-carbohydrazide] | < 100 nM
17 | CC(=O)N(C)N(Cc1c(F)cc(-c2cnn(C(F)F)c2)cc1F)C(=O)c1ccc2nc(N)c3cnn(C)c3c2c1 [Example 379, N′-acetyl-4-amino-N-[[4-[1-(difluoromethyl)pyrazol-4-yl]-2,6-difluoro-phenyl]methyl]-N′,1-dimethyl-pyrazolo[4,3-c]quinoline-8-carbohydrazide] | < 100 nM
18 | CC(=O)N(C)N(Cc1c(F)cc(-c2cnn(C)c2)cc1F)C(=O)c1ccc2nc(N)c3cnn(C)c3c2c1 [Example 380, N′-acetyl-4-amino-N-[[2,6-difluoro-4-(1-methylpyrazol-4-yl)phenyl]methyl]-N′,1-dimethyl-pyrazolo[4,3-c]quinoline-8-carbohydrazide] | < 100 nM
19 | CC(=O)N(C)N(Cc1c(F)cc(-c2cnn(C3CC3)c2)cc1F)C(=O)c1ccc2nc(N)c3cnn(C)c3c2c1 [Example 381, N′-acetyl-4-amino-N-[[4-(1-cyclopropylpyrazol-4-yl)-2,6-difluoro-phenyl]methyl]-N′,1-dimethyl-pyrazolo[4,3-c]quinoline-8-carbohydrazide] | < 100 nM
20 | CN(C(=O)C1CC1)N(Cc1cc2cc(Cl)ccn2n1)C(=O)c1ccc2nc(N)c3cnn(C)c3c2c1 [Example 401] | < 100 nM
21 | CN(C(=O)C1CC1)N(Cc1cc2cc(C(F)(F)F)ccn2n1)C(=O)c1ccc2nc(N)c3cnn(C)c3c2c1 [Example 404, 4-amino-N′-(cyclopropanecarbonyl)-N′,1-dimethyl-N-((5-(trifluoromethyl)pyrazolo[1,5-a]pyridin-2-yl)methyl)-1H-pyrazolo[4,3-c]quinoline-8-carbohydrazide] | < 100 nM
